Experimental data: PubChem BioAssay AID330 (DTP/NCI, 2004)
Values joined by “and” are separate entries in the source; they are usually repeats but may differ in a detail not shown here. Equal entries are not always repeated. Inconclusive results and toxic doses are left out.

Test system: P388 leukemia ip, CD2F1 mice, survival T/C
Assay: NCI In Vivo Anticancer Drug Screen. Data for tumor model P388 Leukemia (intraperitoneal) in CD2F1 (CDF1) mice
Details: endpoint: median survival time, higher = longer survival
Outline: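 Mice carrying the transplanted tumor received test compound or vehicle. Survival was recorded in each group, and the value is the treated-group measurement divided by that of the vehicle-treated control group.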

[1] = dose: 60.0 mg/kg/injection, schedule: Q01DX005 (ip), vehicle: Klucel (hydroxypropylcellulose) (HPC)
[2] = dose: 120.0 mg/kg/injection, schedule: Q01DX005 (ip), vehicle: Klucel (hydroxypropylcellulose) (HPC)
[3] = dose: 240.0 mg/kg/injection, schedule: Q01DX005 (ip), vehicle: Klucel (hydroxypropylcellulose) (HPC)
[4] = dose: 50.0 mg/kg/injection, schedule: Q01DX009 (ip), vehicle: saline
[5] = dose: 100.0 mg/kg/injection, schedule: Q01DX009 (ip), vehicle: saline
[6] = dose: 200.0 mg/kg/injection, schedule: Q01DX009 (ip), vehicle: saline
[7] = dose: 50.0 mg/kg/injection, schedule: Q01DX009 (ip), vehicle: saline with Tween-80
[8] = dose: 200.0 mg/kg/injection, schedule: Q01DX009 (ip), vehicle: saline with Tween-80
[9] = dose: 100.0 mg/kg/injection, schedule: Q04DX003 (ip), vehicle: saline
[10] = dose: 200.0 mg/kg/injection, schedule: Q04DX003 (ip), vehicle: saline
[11] = dose: 400.0 mg/kg/injection, schedule: Q04DX003 (ip), vehicle: saline
[12] = dose: 100.0 mg/kg/injection, schedule: Q01DX009 (ip), vehicle: saline with Tween-80
[13] = dose: 400.0 mg/kg/injection, schedule: Q01DX009 (ip), vehicle: saline with Tween-80
[14] = dose: 50.0 mg/kg/injection, schedule: Q01DX005 (ip), vehicle: Klucel (hydroxypropylcellulose) (HPC)
[15] = dose: 100.0 mg/kg/injection, schedule: Q01DX005 (ip), vehicle: Klucel (hydroxypropylcellulose) (HPC)
[16] = dose: 200.0 mg/kg/injection, schedule: Q01DX005 (ip), vehicle: Klucel (hydroxypropylcellulose) (HPC)

COC1(OC)C(c2ccc([N+](=O)[O-])cc2)C([N+](=O)[O-])C1(OC)OC (stereo not given)
T/C [1]: 90 % of control
T/C [2]: 93 % of control
T/C [3]: 89 % of control

C=C(C)C(=O)c1ccc(C(=O)O)cc1
T/C (dose: 12.5 mg/kg/injection, schedule: Q04DX002 (ip), vehicle: saline with Tween-80): 105 % of control
T/C (dose: 25.0 mg/kg/injection, schedule: Q04DX002 (ip), vehicle: saline with Tween-80): 114 % of control
T/C (dose: 50.0 mg/kg/injection, schedule: Q04DX002 (ip), vehicle: saline with Tween-80): 122 % of control

CCCCNP(=O)(N1CC1CC)N1CC1CC (stereo not given)
T/C [4]: 122 % of control
T/C [5]: 150 % of control
T/C [6]: 104 % of control
T/C (dose: 300.0 mg/kg/injection, schedule: Q04DX003 (ip), vehicle: saline): 195 % of control

Cc1[nH]c(NC(=O)C(=O)O)c(C#N)c1C
T/C [7]: 106 % of control
T/C [8]: 100 % of control

C=C1C(=O)OC2C1C(OC(=O)C(C)CC)CC1(O)COC3(O)C1C2C1(C)OC13 (stereo not given)
T/C (dose: 6.25 mg/kg/injection, schedule: Q01DX001 (ip), vehicle: Klucel (hydroxypropylcellulose) (HPC)): 106 % of control
T/C (dose: 12.5 mg/kg/injection, schedule: Q01DX001 (ip), vehicle: Klucel (hydroxypropylcellulose) (HPC)): 108 % of control
T/C (dose: 25.0 mg/kg/injection, schedule: Q01DX001 (ip), vehicle: Klucel (hydroxypropylcellulose) (HPC)): 117 % of control and 90 % of control

O=C1OC(=O)C2C3C=CC(C4C=C(C5CC5)C43)C12 (stereo not given)
T/C [9]: 102 % of control
T/C [10]: 107 % of control
T/C [11]: 111 % of control

Clc1ccc(C2N(Cc3ccccc3)CCC3CCCCN32)cc1Cl (stereo not given)
T/C [7]: 87 % of control
T/C [12]: 91 % of control

O=C1CSCC(=O)OCCOCCOCCOCCO1
T/C [9]: 100 % of control
T/C [10]: 101 % of control
T/C [11]: 100 % of control

Cc1ccc(-c2cs/c(=N\N=C3/CSC(=O)N3Cc3ccccc3)n2-c2ccc(C)cc2)cc1
T/C (dose: 100.0 mg/kg/injection, schedule: Q04DX002 (ip), vehicle: Klucel (hydroxypropylcellulose) (HPC)): 100 % of control
T/C (dose: 200.0 mg/kg/injection, schedule: Q04DX002 (ip), vehicle: Klucel (hydroxypropylcellulose) (HPC)): 107 % of control
T/C (dose: 400.0 mg/kg/injection, schedule: Q04DX002 (ip), vehicle: Klucel (hydroxypropylcellulose) (HPC)): 102 % of control

O=C1c2c(Cl)c(Cl)c(Cl)c(Cl)c2C(=O)C2(Cl)CC=CCC12Cl (stereo not given)
T/C (dose: 6.25 mg/kg/injection, schedule: Q01DX005 (ip), vehicle: Klucel (hydroxypropylcellulose) (HPC)): 101 % of control
T/C (dose: 12.5 mg/kg/injection, schedule: Q01DX005 (ip), vehicle: Klucel (hydroxypropylcellulose) (HPC)): 95 % of control
T/C (dose: 25.0 mg/kg/injection, schedule: Q01DX005 (ip), vehicle: Klucel (hydroxypropylcellulose) (HPC)): 101 % of control

CCCCCCCCCC(=O)OC(C)C(=O)N(CCCC)CCCC (stereo not given)
T/C [12]: 110 % of control
T/C [8]: 102 % of control
T/C [13]: 106 % of control

CCCn1c(O)c(C(=O)CC)sc1=S
T/C [1]: 97 % of control
T/C [2]: 99 % of control

O=C(c1ccccc1)C1OC1c1ccccc1 (stereo not given)
T/C [7]: 104 % of control
T/C [12]: 105 % of control and 97 % of control
T/C [8]: 103 % of control and 114 % of control
T/C [13]: 109 % of control and 123 % of control
T/C (dose: 600.0 mg/kg/injection, schedule: Q01DX009 (ip), vehicle: saline with Tween-80): 87 % of control

COc1ccc(CCNC(=O)CC2CCN(Cc3ccccc3)CC2)cc1OC
T/C [14]: 100 % of control
T/C [15]: 100 % of control
T/C [16]: 95 % of control

COC(=O)CC1(C(=O)OC)C2=C(CCCC2)N2CCCC21 (stereo not given)
T/C (dose: 21.88 mg/kg/injection, schedule: Q01DX009 (ip), vehicle: Klucel (hydroxypropylcellulose) (HPC)): 102 % of control
T/C (dose: 43.75 mg/kg/injection, schedule: Q01DX009 (ip), vehicle: Klucel (hydroxypropylcellulose) (HPC)): 102 % of control
T/C (dose: 87.5 mg/kg/injection, schedule: Q01DX009 (ip), vehicle: Klucel (hydroxypropylcellulose) (HPC)): 100 % of control
T/C (dose: 175.0 mg/kg/injection, schedule: Q01DX009 (ip), vehicle: Klucel (hydroxypropylcellulose) (HPC)): 100 % of control

CN1C2CCC1CC(OC(=O)C(CO)c1ccccc1)C2 (stereo not given)
T/C (dose: 12.5 mg/kg/injection, schedule: Q01DX009 (ip), vehicle: saline with Tween-80): 105 % of control and 95 % of control
T/C (dose: 25.0 mg/kg/injection, schedule: Q01DX009 (ip), vehicle: saline with Tween-80): 100 % of control and 111 % of control
T/C [7]: 103 % of control and 92 % of control
T/C [12]: 100 % of control and 95 % of control
T/C (dose: 150.0 mg/kg/injection, schedule: Q01DX009 (ip), vehicle: saline with Tween-80): 112 % of control and 95 % of control

Cc1ccc(NCC2CCCN3CCCCC23)c2c(=O)c3ccccc3sc12 (stereo not given)
T/C (dose: 50.0 mg/kg/injection, schedule: Q01DX005 (ip), vehicle: saline with Tween-80): 101 % of control
T/C [4]: 97 % of control
T/C (dose: 100.0 mg/kg/injection, schedule: Q01DX005 (ip), vehicle: saline with Tween-80): 96 % of control
T/C [5]: 99 % of control
T/C (dose: 200.0 mg/kg/injection, schedule: Q01DX005 (ip), vehicle: saline with Tween-80): 106 % of control
T/C [6]: 124 % of control

CCN(CC)c1ccc2c(C)cc(=O)oc2c1
T/C (dose: 25.0 mg/kg/injection, schedule: Q04DX003 (ip), vehicle: DMSO): 92 % of control
T/C (dose: 50.0 mg/kg/injection, schedule: Q04DX003 (ip), vehicle: DMSO): 88 % of control

NC(=O)CCC(NS(=O)(=O)c1ccc(NC(=O)c2ccc(Cl)cc2)cc1)C(=O)O (stereo not given)
T/C [14]: 104 % of control
T/C [15]: 102 % of control
T/C [16]: 102 % of control

O=P(c1ccccc1)(c1ccccc1)c1ccccc1.O=P(c1ccccc1)(c1ccccc1)c1ccccc1.O=P(c1ccccc1)(c1ccccc1)c1ccccc1.O=P(c1ccccc1)(c1ccccc1)c1ccccc1.[O-][Cl+3]([O-])([O-])O.[Zn+2]
T/C (dose: 50.0 mg/kg/injection, schedule: Q01DX001 (ip), vehicle: saline with Tween-80): 104 % of control
T/C (dose: 100.0 mg/kg/injection, schedule: Q01DX001 (ip), vehicle: saline with Tween-80): 103 % of control and 90 % of control

C[N+](C)(C)CCC(=O)c1cccc([N+](=O)[O-])c1
T/C (dose: 12.5 mg/kg/injection, schedule: Q01DX009 (ip), vehicle: saline): 101 % of control
T/C (dose: 25.0 mg/kg/injection, schedule: Q01DX009 (ip), vehicle: saline): 97 % of control
T/C [4]: 108 % of control and 97 % of control

COC(=O)C(=O)C1CCc2c(C(=O)OC)nc3nnc(N)n3c21 (stereo not given)
T/C (dose: 60.0 mg/kg/injection, schedule: Q01DX005 (ip), vehicle: saline with Tween-80): 94 % of control
T/C (dose: 120.0 mg/kg/injection, schedule: Q01DX005 (ip), vehicle: saline with Tween-80): 99 % of control
T/C (dose: 240.0 mg/kg/injection, schedule: Q01DX005 (ip), vehicle: saline with Tween-80): 87 % of control

CN1C(=O)N(C)N(Cc2ccccc2)C(=O)N1Cc1ccccc1
T/C [1]: 97 % of control
T/C [2]: 100 % of control
T/C [3]: 96 % of control

CC1C[N+]2(CNC(=O)c3ccccc3O)CC(C)O[B-]2(c2ccccc2)O1 (stereo not given)
T/C [14]: 103 % of control
T/C [15]: 100 % of control
T/C [16]: 103 % of control

C[C@@H]1CC(=O)C[C@H]2CCCCN21
T/C (dose: 12.5 mg/kg/injection, schedule: Q01DX005 (ip), vehicle: saline): 102 % of control
T/C (dose: 25.0 mg/kg/injection, schedule: Q01DX005 (ip), vehicle: saline): 103 % of control
T/C (dose: 50.0 mg/kg/injection, schedule: Q01DX005 (ip), vehicle: saline): 105 % of control

CCn1c(=O)c2[nH]c(Cl)nc2n(CC)c1=O
T/C (dose: 25.0 mg/kg/injection, schedule: Q04DX003 (ip), vehicle: water): 91 % of control
T/C (dose: 50.0 mg/kg/injection, schedule: Q04DX003 (ip), vehicle: water): 103 % of control
T/C (dose: 100.0 mg/kg/injection, schedule: Q04DX003 (ip), vehicle: water): 112 % of control

Nc1ccccc1C(=O)On1nnc2ccccc2c1=O
T/C (dose: 100.0 mg/kg/injection, schedule: Q01DX001 (ip), vehicle: Klucel (hydroxypropylcellulose) (HPC)): 103 % of control
T/C (dose: 200.0 mg/kg/injection, schedule: Q01DX001 (ip), vehicle: Klucel (hydroxypropylcellulose) (HPC)): 103 % of control
T/C (dose: 400.0 mg/kg/injection, schedule: Q01DX001 (ip), vehicle: Klucel (hydroxypropylcellulose) (HPC)): 100 % of control
